Source: ChEMBL document CHEMBL5113423, “Discovery and preclinical profile of sudapyridine (WX-081), a novel anti-tuberculosis agent” (Bioorg Med Chem Lett, 2022)
≈ marks a conversion by molar mass, not a printed value.

Tested on: Mycobacterium tuberculosis variant bovis
Experiment: Antimycobacterial activity against Mycobacterium bovis ATCC35737 assessed as mycobacterial growth inhibition
Assay type: functional

Work on COc1ncc(-c2ccccc2)cc1[C@@H](c1ccccc1)[C@@](O)(CCN(C)C)c1cccc2ccccc12 yielded an MIC of 0.5 µg/mL (≈ 0.995 µM).
